# In patent publication US20080279907A1, “Antimicrobial medical devices and methods for making and using same” (Ash Access Technology, Inc., priority 2007, published 2008):
# Legend:
# [1] = Desorption of parabens from paraben impregnated polycarbonate catheter pieces in 0.24 M sodium citrate pH 6.2 (HPLC); type: physicochemical
# Procedure: One inch polycarbonate catheter pieces including a surface area of about 4.64 cm^2 were impregnated with methyl paraben and propyl paraben. A solution of 100% 1,2-propanediol was prepared with 9% methyl paraben and 2% propyl paraben. Pairs of the one inch catheter pieces were placed into three 25 ml flasks including 10 ml of the 1,2-propanediol and paraben solution. The flasks including the catheter pieces were placed on a shaker at 220 rpm and 27° C. for two, four, or nine hour time periods. At the end of each time period, the catheter pieces were removed, rinsed with distilled water, and dried.
# Desorption analysis of the paraben impregnated catheter pieces was performed in 0.24 M sodium citrate with a pH of 6.2. The total amount of either methyl paraben or propyl paraben released from the catheter pieces was calculated using HPLC analysis performed with a Waters Alliance 2690 including a 996 Photodiode Array Detector. Each calculation used a solution of HPLC grade H2O, methanol (MeOH), and acetonitrile (CAN) which were pre-filtered through a Millipore 0.45 μm nylon filter before use. Trifluoracetic acid (TFA) was added to H2O and acetonitrile (ACN) to 0.1%. A Waters Symmetry column (C8 3.9×150 mm, 5 μm) was applied with a Waters guard column (Waters, Sentry Guard column, Nova-Pak C18, 60A, 4 μm 3.9×20 mm).
# A gradient of 67% H2O/33% ACN was used for 6.5 min, ramped to 45 %/55% from 6.5 to 7.0 min, and kept at 45%/55% until 15.0 min, at 15.0 min the concentration reverted to 67%/33%, and the system was run until 18 min. Injection volume for each sample was 10 μl and samples and column were run at ambient temperature.
# Table 2 includes the graphical data represented in FIG. 8 and associated with the desorption of propyl paraben from the paraben impregnated catheter pieces prepared as discussed above. Again, the samples were impregnated only with parabens and desorbed in 10 ml 0.24 M Na-citrate, pH 6.2 over time.
# [2] = Perfusion of parabens and methylene blue through polycarbonate membrane in perfusion chamber (HPLC of lower chamber); type: physicochemical
# Procedure: An experiment was performed to determine a method for perfusing methylene blue, methyl paraben, and propyl paraben through a polycarbonate membrane with causing only minimal changes to the strength and elasticity of the membrane. In FIG. 12, there is illustrated a perfusion chamber system 50 used during the experiment. System 50 includes an upper chamber 51 and a lower chamber 52 separated by a polycarbonate membrane 53 having a thickness of 0.60 mm. The upper and lower chambers 51, 52 are generally structured to hold 10.5 cm^3 or 10.5 ml of fluid. The upper chamber 51 was connected to a peristaltic pump (not shown) and the lower chamber 52 was filled with distilled water. First and second solutions, respectively including the parabens and the methylene blue, were prepared in accordance with the method set forth in EXAMPLE 6 above. As best seen in Tables 6 and 7 below, the solutions were connected to the pump and passed through the first chamber 51 at a constant rate at 37° C. over various lengths of time.
# Table 6 includes data obtained from HPLC analysis comparing the methyl paraben, propyl paraben, and methylene blue concentrations in the lower chamber 52. The parameters for the methyl and propyl paraben and methylene blue treatments are indicated in the left hand columns.
# [3] = lower chamber, 20% PG/80% DI H2O (0.9% MP, 0.2% PP) ~9 hrs at 37 C., then MB ~10 days
structure (smiles),measurement,setting,value
"CCCOC(=O)c1ccc(O)cc1 [PP, propyl paraben]",desorption by the end of the study,"[1]; nearly 3 months, FIGS. 8 and 9",negligible desorption
same,period of significant release,"[1]; paraben impregnated catheter pieces, 0.24 M Na-citrate pH 6.2",20 days
same,Total PP released (mg)/1″ catheter,"[1]; treatment 2 hrs (100% PG, 9% MP, 2% PP), time 1 hour",0.048 mg/1″ catheter
same,Total PP released (mg)/1″ catheter,"[1]; treatment 2 hrs (100% PG, 9% MP, 2% PP), time 3 hours",0.081 mg/1″ catheter
same,Total PP released (mg)/1″ catheter,"[1]; treatment 2 hrs (100% PG, 9% MP, 2% PP), time 7 hours",0.121 mg/1″ catheter
same,Total PP released (mg)/1″ catheter,"[1]; treatment 2 hrs (100% PG, 9% MP, 2% PP), time 24 hours",0.121 mg/1″ catheter
same,Total PP released (mg)/1″ catheter,"[1]; treatment 2 hrs (100% PG, 9% MP, 2% PP), time 4 days",0.153 mg/1″ catheter
same,Total PP released (mg)/1″ catheter,"[1]; treatment 2 hrs (100% PG, 9% MP, 2% PP), time 5 days",0.182 mg/1″ catheter
same,Total PP released (mg)/1″ catheter,"[1]; treatment 2 hrs (100% PG, 9% MP, 2% PP), time 6 days",0.209 mg/1″ catheter
same,Total PP released (mg)/1″ catheter,"[1]; treatment 2 hrs (100% PG, 9% MP, 2% PP), time 8 days",0.239 mg/1″ catheter
same,Total PP released (mg)/1″ catheter,"[1]; treatment 2 hrs (100% PG, 9% MP, 2% PP), time 11 days",0.264 mg/1″ catheter
same,Total PP released (mg)/1″ catheter,"[1]; treatment 2 hrs (100% PG, 9% MP, 2% PP), time 13 days",0.288 mg/1″ catheter
same,Total PP released (mg)/1″ catheter,"[1]; treatment 2 hrs (100% PG, 9% MP, 2% PP), time 15 days",0.311 mg/1″ catheter
same,Total PP released (mg)/1″ catheter,"[1]; treatment 2 hrs (100% PG, 9% MP, 2% PP), time 18 days",0.332 mg/1″ catheter
same,Total PP released (mg)/1″ catheter,"[1]; treatment 2 hrs (100% PG, 9% MP, 2% PP), time 22 days",0.352 mg/1″ catheter
same,Total PP released (mg)/1″ catheter,"[1]; treatment 2 hrs (100% PG, 9% MP, 2% PP), time 29 days",0.37 mg/1″ catheter
same,Total PP released (mg)/1″ catheter,"[1]; treatment 2 hrs (100% PG, 9% MP, 2% PP), time 36 days",0.387 mg/1″ catheter
same,Total PP released (mg)/1″ catheter,"[1]; treatment 2 hrs (100% PG, 9% MP, 2% PP), time 50 days",0.404 mg/1″ catheter
same,Total PP released (mg)/1″ catheter,"[1]; treatment 2 hrs (100% PG, 9% MP, 2% PP), time 67 days",0.417 mg/1″ catheter
same,Total PP released (mg)/1″ catheter,"[1]; treatment 2 hrs (100% PG, 9% MP, 2% PP), time 81 days",0.429 mg/1″ catheter
same,Total PP released (mg)/1″ catheter,"[1]; treatment 4 hrs (100% PG, 9% MP, 2% PP), time 1 hour",0.007 mg/1″ catheter
same,Total PP released (mg)/1″ catheter,"[1]; treatment 4 hrs (100% PG, 9% MP, 2% PP), time 3 hours",0.069 mg/1″ catheter
same,Total PP released (mg)/1″ catheter,"[1]; treatment 4 hrs (100% PG, 9% MP, 2% PP), time 7 hours",0.138 mg/1″ catheter
same,Total PP released (mg)/1″ catheter,"[1]; treatment 4 hrs (100% PG, 9% MP, 2% PP), time 24 hours",0.208 mg/1″ catheter
same,Total PP released (mg)/1″ catheter,"[1]; treatment 4 hrs (100% PG, 9% MP, 2% PP), time 4 days",0.254 mg/1″ catheter
same,Total PP released (mg)/1″ catheter,"[1]; treatment 4 hrs (100% PG, 9% MP, 2% PP), time 5 days",0.293 mg/1″ catheter
same,Total PP released (mg)/1″ catheter,"[1]; treatment 4 hrs (100% PG, 9% MP, 2% PP), time 6 days",0.326 mg/1″ catheter
same,Total PP released (mg)/1″ catheter,"[1]; treatment 4 hrs (100% PG, 9% MP, 2% PP), time 8 days",0.362 mg/1″ catheter
same,Total PP released (mg)/1″ catheter,"[1]; treatment 4 hrs (100% PG, 9% MP, 2% PP), time 11 days",0.393 mg/1″ catheter
same,Total PP released (mg)/1″ catheter,"[1]; treatment 4 hrs (100% PG, 9% MP, 2% PP), time 13 days",0.424 mg/1″ catheter
same,Total PP released (mg)/1″ catheter,"[1]; treatment 4 hrs (100% PG, 9% MP, 2% PP), time 15 days",0.45 mg/1″ catheter
same,Total PP released (mg)/1″ catheter,"[1]; treatment 4 hrs (100% PG, 9% MP, 2% PP), time 18 days",0.476 mg/1″ catheter
same,Total PP released (mg)/1″ catheter,"[1]; treatment 4 hrs (100% PG, 9% MP, 2% PP), time 22 days",0.497 mg/1″ catheter
same,Total PP released (mg)/1″ catheter,"[1]; treatment 4 hrs (100% PG, 9% MP, 2% PP), time 29 days",0.518 mg/1″ catheter
same,Total PP released (mg)/1″ catheter,"[1]; treatment 4 hrs (100% PG, 9% MP, 2% PP), time 36 days",0.539 mg/1″ catheter
same,Total PP released (mg)/1″ catheter,"[1]; treatment 4 hrs (100% PG, 9% MP, 2% PP), time 50 days",0.569 mg/1″ catheter
same,Total PP released (mg)/1″ catheter,"[1]; treatment 4 hrs (100% PG, 9% MP, 2% PP), time 67 days",0.585 mg/1″ catheter
same,Total PP released (mg)/1″ catheter,"[1]; treatment 4 hrs (100% PG, 9% MP, 2% PP), time 81 days",0.6 mg/1″ catheter
same,Total PP released (mg)/1″ catheter,"[1]; treatment 9 hrs (100% PG, 9% MP, 2% PP), time 1 hour",0.082 mg/1″ catheter
same,Total PP released (mg)/1″ catheter,"[1]; treatment 9 hrs (100% PG, 9% MP, 2% PP), time 3 hours",0.124 mg/1″ catheter
same,Total PP released (mg)/1″ catheter,"[1]; treatment 9 hrs (100% PG, 9% MP, 2% PP), time 7 hours",0.175 mg/1″ catheter
same,Total PP released (mg)/1″ catheter,"[1]; treatment 9 hrs (100% PG, 9% MP, 2% PP), time 24 hours",0.221 mg/1″ catheter
same,Total PP released (mg)/1″ catheter,"[1]; treatment 9 hrs (100% PG, 9% MP, 2% PP), time 4 days",0.279 mg/1″ catheter
same,Total PP released (mg)/1″ catheter,"[1]; treatment 9 hrs (100% PG, 9% MP, 2% PP), time 5 days",0.331 mg/1″ catheter
same,Total PP released (mg)/1″ catheter,"[1]; treatment 9 hrs (100% PG, 9% MP, 2% PP), time 6 days",0.375 mg/1″ catheter
same,Total PP released (mg)/1″ catheter,"[1]; treatment 9 hrs (100% PG, 9% MP, 2% PP), time 8 days",0.422 mg/1″ catheter
same,Total PP released (mg)/1″ catheter,"[1]; treatment 9 hrs (100% PG, 9% MP, 2% PP), time 11 days",0.463 mg/1″ catheter
same,Total PP released (mg)/1″ catheter,"[1]; treatment 9 hrs (100% PG, 9% MP, 2% PP), time 13 days",0.5 mg/1″ catheter
same,Total PP released (mg)/1″ catheter,"[1]; treatment 9 hrs (100% PG, 9% MP, 2% PP), time 15 days",0.533 mg/1″ catheter
same,Total PP released (mg)/1″ catheter,"[1]; treatment 9 hrs (100% PG, 9% MP, 2% PP), time 18 days",0.565 mg/1″ catheter
same,Total PP released (mg)/1″ catheter,"[1]; treatment 9 hrs (100% PG, 9% MP, 2% PP), time 22 days",0.594 mg/1″ catheter
same,Total PP released (mg)/1″ catheter,"[1]; treatment 9 hrs (100% PG, 9% MP, 2% PP), time 29 days",0.622 mg/1″ catheter
same,Total PP released (mg)/1″ catheter,"[1]; treatment 9 hrs (100% PG, 9% MP, 2% PP), time 36 days",0.65 mg/1″ catheter
same,Total PP released (mg)/1″ catheter,"[1]; treatment 9 hrs (100% PG, 9% MP, 2% PP), time 50 days",0.687 mg/1″ catheter
same,Total PP released (mg)/1″ catheter,"[1]; treatment 9 hrs (100% PG, 9% MP, 2% PP), time 67 days",0.708 mg/1″ catheter
same,Total PP released (mg)/1″ catheter,"[1]; treatment 9 hrs (100% PG, 9% MP, 2% PP), time 81 days",0.727 mg/1″ catheter
same,time until perfused through the membrane and detected in the lower chamber,"[2]; 0.60 mm polycarbonate membrane, 37° C.",within two hours
same,PP conc,[2]; [3],0.01 mg/mL
same,Total mg PP in 10.5 ml lower chamber,[2]; [3],0.105 mg
